Measurements reported in PMC9106035, “Synthesis, X-ray Structure and Biological Studies of New Self-Assembled Cu(II) Complexes Derived from s-Triazine Schiff Base Ligand” (Molecules, 2022).

Legend:
[1] = test system: A. fumigatus (RCMB 002008); assay: Agar well diffusion, inhibition zone; assay type: cell-based; conditions: 10 mg/mL of the tested compounds
Protocol: (§1) The antimicrobial activity of the free ligands and the corresponding Cu(II) complexes was determined against different categories of microbes (Table 5). All inhibition zones were determined at 10 mg/mL of the tested compounds. […] The largest inhibition zones were found for B. subtilis (25 mm), which is very close to the standard Gentamycin (26 mm). […] Complex 1 evidenced antimicrobial activity against all microbes except C. albicans.
(§2) Method S2: Antimi crobial studies a) Tested pathogenic microbes
(§3) The antibacterial a ctivity of the studied ligands and their Cu(II) complexes were evaluated against two Gram positive bacteria ((S. aureus (ATCC 25923) and B. subtilis (RCMB015(1)NRR LB-543)), two Gram negatvie bacteria ((E. coli (ATCC 25922) and P. vulgaris (RCMB 004(1)ATCC 13315)) and two fungi ((A. fumigatus […]
was used as standard antibacterial agent. The samples maintained in Brain heart infusion (BHI) at 20 °C; […] of each stock–c ulture was added to 3 mL of BHI […]
broth. […]
(§4) 0.5). In case of fungi A. fumigatus (RCMB 002008) and C. albicans (RCMB 005003(1) ATCC 10231), the used medium in antagonistic activity against tested fungi is Potato Dextrose Agar, where Fluconazole was used standard antifungal agent. b) Agar well diffusion method
(§5) Synthetic compounds were prepared at concentration 10 mg/mL dissolved in DMSO as stock solutions. Preparation of sterilized Mueller Hinton agar plates seeded with tested pathogenic b acteria occurred. The wells are done by sterilized cork borer in size […]
(§6) comparably with DMSO as control. The plates were incubated at 37°C for 24 h. after incubation period; antimicrobial activity was d etermined by inhibition zones. […]

[2] = test system: C. albicans (RCMB 005003(1) ATCC 10231); assay: Agar well diffusion, inhibition zone; assay type: cell-based; conditions: 10 mg/mL of the tested compounds
Protocol: as §1, §2
(§7) The antibacterial a ctivity of the studied ligands and their Cu(II) complexes were evaluated against two Gram positive bacteria ((S. aureus (ATCC 25923) and B. […]
as §4, §5, §6

[3] = test system: B. subtilis (RCMB015(1)NRR LB-543); assay: Agar well diffusion, inhibition zone; assay type: cell-based; conditions: 10 mg/mL of the tested compounds
Protocol: as §1, §2, §3
(§8) was used as standard antibacterial agent. The samples maintained in Brain heart infusion (BHI) at 20 °C; […] of each stock–c ulture was added to 3 mL of BHI broth. Overnight cultures were kept for 24 h at 37 °C ± 1 °C and the purity of cultures was checked aft er 24 h of incubation. […]
(§9) b) Agar well diffusion method
as §5, §6

E. coli (ATCC 25922) [4] = assay: Agar well diffusion, inhibition zone; assay type: cell-based; conditions: 10 mg/mL of the tested compounds
Protocol: as §1, §2, §3, §8, §9, §5, §6

[5] = test system: P. vulgaris (RCMB 004(1)ATCC 13315); assay: Agar well diffusion, inhibition zone; assay type: cell-based; conditions: 10 mg/mL of the tested compounds
Protocol: as §1, §2, §3, §8, §9, §5, §6

S. aureus (ATCC 25923) [6] = assay: Agar well diffusion, inhibition zone; assay type: cell-based; conditions: 10 mg/mL of the tested compounds
Protocol: as §1, §2, §3, §8, §9, §5, §6

[7] = test system: A. fumigatus (RCMB 002008); assay: Minimum Inhibitory Concentration (MIC); assay type: cell-based
Protocol: as §2, §7
0.5). In case of fungi A. fumigatus (RCMB 002008) and C. albicans (RCMB 005003(1) ATCC 10231), the used medium in antagonistic activity against tested fungi is Potato Dextrose Agar, where Fluconazole was used standard antifungal agent. […]
(§10) c) Minimum Inhibitory Concentration (MIC)
(§11) Different dilutions of the compounds are inoculat ed with tested pathogenic microbes.
(§12) After incubation period of 96 well microplate, the results are meas ured using microplate reader. To determine at what level the MIC endpoint is established; subculture of test samples at different concentrati ons occurred in nutrient agar plates.

[8] = test system: B. subtilis (RCMB015(1)NRR LB-543); assay: Minimum Inhibitory Concentration (MIC); assay type: cell-based
Protocol: as §2, §3, §8, §10, §11, §12

E. coli (ATCC 25922) [9] = assay: Minimum Inhibitory Concentration (MIC); assay type: cell-based
Protocol: as §2, §3, §8, §10, §11, §12

[10] = test system: P. vulgaris (RCMB 004(1)ATCC 13315); assay: Minimum Inhibitory Concentration (MIC); assay type: cell-based
Protocol: as §2, §3, §8, §10, §11, §12

S. aureus (ATCC 25923) [11] = assay: Minimum Inhibitory Concentration (MIC); assay type: cell-based
Protocol: as §2, §3, §8, §10, §11, §12

[12] = Cytotoxic activity on normal cells, MTT viability assay; assay type: cell-based, human; conditions: human, MRC-5 normal lung fibroblast cells; for viability at 24 h, 2.5 µM: sample conc. 2.5 µM; for viability at 24 h, 5 µM: sample conc. 5.0 µM; for viability at 24 h, 9.8 µM: sample conc. 9.8 µM; for viability at 24 h, 39.1 µM: sample conc. 39.1 µM; for CC50 at 24 h: MRC-5 cells, MTT
Protocol: In this regard, the selectivity index (SI) was calculated as the ratio of cytotoxic effect on the normal cell line to the cytotoxic effect on the cancer cell line.
Method S4 Evaluation of Cytotoxic activity
The cells were propagated in Dulbecco’s modified Eagle’s medium (DMEM) supplemented with 10% heat-inactivated fetal bovine serum, 1 % L-glutamine, HEPES buffer and 50µg/mL Gentamycin. All cells were maintained at 37 °C in a humidified atmosphere with 5% CO2 and were subcultured tw o times a week.
Cytotoxicity evaluation using viability assay
For cytotoxicity assay, the cells were seeded in 96-well plate at a cell concentration of 1×10^4 cells per well in 100µl of growth medium. Fresh medium containing different concentrations of the test sample was added after 24 h of seeding. Serial two-fold dilutions of the tested chemical compound were added to confluent cell monolayers dispensed into 96-well, flat-bottomed microtiter plates (Falcon, NJ, USA) using a multichannel pipette. The microtiter plates were incubated at 37 °C in a humidified incubator with 5% CO2 for a period of 24 h. Three wells were used for each concentration of the test sample. Control cells were incubated without test sample and with or without DMSO. The little percentage of DMSO present in the […]
cells for at 37°C, for 24 h, the viabl e cells yield was determined by the MTT test.
Briefly, the media was removed from the 96 well plate and replaced with 100 µL of fresh culture DMEM m edium without phenol red then 10 µL of the 12 mM MTT stock solution (5 mg of MTT in 1 mL of PBS) to each well including the untreated controls. The 96 well plates were then incubated at 37°C and 5% CO2 for 4 hours. An 85 µL aliquot of the media was removed from t he wells, and 50 µL of DMSO was added to each well and mixed thoroughly with the pipette and incubated at 37°C for 10 min. Then, the optical density was measured at 590 nm with the microplate reader (SunRise, TECAN, Inc, USA) to determine the number of viable cells and the percentage of viability was calculat ed as [(ODt/ODc)]x100% where ODt i s the mean optical density of wells treated with the tested s ample and ODc is the mean optical density of untreated cells. The relation between surviving cells and drug concentration is plotted to get the survival curve of each tumor cell line after treatment with the specified compound. The 50% inhibitory concentration (IC50), the concentration required to cause t oxic effects in 50% of intact cells, was estimated from graphic plots of the dose response curve for each conc. using Graphpad Prism software (San Diego, […]

Compound | Inhibition zone diameters [1] | Inhibition zone diameters [2] | Inhibition zone diameters [3] [mm] | Inhibition zone diameters (E. coli (ATCC 25922) [4]) [mm] | Inhibition zone diameters [5] [mm] | Inhibition zone diameters (S. aureus (ATCC 25923) [6]) [mm] | MIC [8] [µg/mL] | MIC (E. coli (ATCC 25922) [9]) [µg/mL] | MIC [10] [µg/mL] | MIC (S. aureus (ATCC 25923) [11]) [µg/mL] | CC50 at 24 h [12] [µM] | further results
CC(=NNc1nc(N2CCOCC2)nc(N2CCOCC2)n1)c1ccccc1[O-].CC(=O)[O-].[Cu+2] [Complex 2, [Cu(DMOT)(CH3COO)]] | 15 mm | 10 mm | 25 | 14 | 15 | 11 | 39.06 | 1250 | 1250 | 1250 | – | MIC [7]: 625 µg/mL
CC(=NNc1nc(N2CCOCC2)nc(N2CCOCC2)n1)c1ccccc1N [DMAT, 2-(1-(2-(4,6-dimorpholino-1,3,5-triazin-2-yl)hydrazono)ethyl)aniline] | – | – | – | – | – | – | – | – | – | – | 716 | viability at 24 h, 2.5 µM ([12]; MRC-5, Table S10): 100%; viability at 24 h, 5 µM ([12]; MRC-5, Table S10): 100%; viability at 24 h, 9.8 µM ([12]; MRC-5, Table S10): 100%; viability at 24 h, 19.6 µM ([12]; MRC-5, sample conc. 19.6 µM, Table S10): 100%; viability at 24 h, 39.1 µM ([12]; MRC-5, Table S10): 100%; viability at 24 h, 78.4 µM ([12]; MRC-5, sample conc. 78.4 µM, Table S10): 100%; viability at 24 h, 156.8 µM ([12]; MRC-5, sample conc. 156.8 µM, Table S10): 99.8%; viability at 24 h, 313.7 µM ([12]; MRC-5, sample conc. 313.7 µM, Table S10): 89.3%; viability at 24 h, 627.4 µM ([12]; MRC-5, sample conc. 627.4 µM, Table S10): 53.9%; viability at 24 h, 1254.8 µM ([12]; MRC-5, sample conc. 1254.8 µM, Table S10): 26.1%
CC(=NNc1nc(N2CCOCC2)nc(N2CCOCC2)n1)c1ccccc1[O-].O=[N+]([O-])[O-].[Cu+2] [Complex 3, [Cu(DMOT)(NO3)]] | no antifungal activity | no antifungal activity | 24 | 15 | 13 | 12 | 78.125 | 312.5 | 1250 | 1250 | – | –
CC(=NNc1nc(N2CCOCC2)nc(N2CCOCC2)n1)c1ccccc1O [DMOHT, 2-(1-(2-(4,6-dimorpholino-1,3,5-triazin-2-yl)hydrazono)ethyl)phenol] | – | – | – | – | – | – | – | – | – | – | 1000 | viability at 24 h, 2.5 µM ([12]; MRC-5, Table S12): 100%; viability at 24 h, 5 µM ([12]; MRC-5, Table S12): 100%; viability at 24 h, 9.8 µM ([12]; MRC-5, Table S12): 100%; viability at 24 h, 19.5 µM ([12]; MRC-5, sample conc. 19.5 µM, Table S12): 100%; viability at 24 h, 39.1 µM ([12]; MRC-5, Table S12): 100%; viability at 24 h, 78.2 µM ([12]; MRC-5, sample conc. 78.2 µM, Table S12): 100%; viability at 24 h, 156.5 µM ([12]; MRC-5, sample conc. 156.5 µM, Table S12): 97.9%; viability at 24 h, 312.9 µM ([12]; MRC-5, sample conc. 312.9 µM, Table S12): 89.6%; viability at 24 h, 625.8 µM ([12]; MRC-5, sample conc. 625.8 µM, Table S12): 67.6%; viability at 24 h, 1251.7 µM ([12]; MRC-5, sample conc. 1251.7 µM, Table S12): 38.2%
